Assay results reported in patent EP3661951B1, “GENES AND METHODS FOR BIOTECHNOLOGICAL PRODUCTION AND COMPARTMENTALIZATION OF HIGH ADDED VALUE APOCAROTENOIDS” (Agenzia Nazionale Per Le Nuove Tecnologie, L'Energia E Lo …, priority 2017, dated 2019).

Assays:
[1] = system: Crocus sativus CsABCC1 transporter (SEQ ID NO 12); assay: In vitro transport assay ("transportomics") with yeast microsomes, inhibition by Probenecid; assay type: biochemical; details: Probenecid 1 mM, microsomes pre-incubated 10 minutes at room temperature; saffron hydroalcoholic extract as substrate; net ATP-dependent transport after 15 minutes; S. cerevisiae ybt1 microsomes
Method: (§1) A new in vitro assay was prepared, differing from the classical transportation assay wherein the vesicles are left to incubate for pre-established periods of time with the putative substrate, washed, lysed and the content analysed by liquid chromatography coupled to a UV/visible detector. With respect to the works existing in literature relating the in-vitro functional characterization of transporters, the present invention introduces the concept of "transportomics": the assay is based upon the transportation analysis, performed by LC-HRMS, of all molecules existing in the saffron extract. This approach, providing the use of a raw extract instead of commercial purified standards, allows to characterize the transportation even of molecules which are not commercially available; moreover, as it is based upon data obtained with high resolution mass spectrometry, rather than with photodiode series detector (PDA), the system is extremely sensitive and it allows to appreciate the transportation of low abundant metabolites.
(§2) With this method, then, it was observed that the two ABCC transporters are capable of transporting different crocins apart from some flavonoids (figure 10b, black bars). […]

[2] = system: Crocus sativus CsABCC2 transporter (SEQ ID NO 14); assay: as above; assay type: biochemical; details: Probenecid 1 mM, microsomes pre-incubated 10 minutes at room temperature; saffron hydroalcoholic extract as substrate; net ATP-dependent transport after 15 minutes; S. cerevisiae ybt1 microsomes
Method: as §1, §2

**Q.** What does the source list for `CCCN(CCC)S(=O)(=O)c1ccc(C(=O)O)cc1` [Probenecid]?
**A.** transportation of saffron metabolites (crocins) in presence of Probenecid inhibitor [1]: considerable transportation reduction; transportation of saffron metabolites (crocins) in presence of Probenecid inhibitor [2]: considerable transportation reduction
